Measured values: patent US20230183193A1, “4-DIFLUOROMETHYL BENZOYL AMIDES WITH HERBICIDAL ACTION” (BAYER CROPSCIENCE AKTIENGESELLSCHAFT, priority 2017, published 2023)

Experiments:
[1] = test system: Viola tricolor; test: Post-emergence herbicidal action, VIOTR; assay type: in vivo; conditions: for herbicidal activity VIOTR: 80 g/ha, Table D
Outline: (§1)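 Greenhouse-grown weeds in sandy loam, treated at the one-leaf stage 2 to 3 weeks after sowing with WP or EC formulations sprayed as aqueous suspension/emulsion at 600 to […] water plus 0.2% wetting agent. Visual scoring after about 3 weeks versus untreated controls, 0% (like control) to 100% (plants dead).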

[2] = test system: ECHCG; test: Pre-emergence herbicidal action, ECHCG; assay type: in vivo, Echinochloa crus-galli
[3] = test system: Matricaria inodora; test: Pre-emergence herbicidal action, MATIN; assay type: in vivo; conditions: for Herbicidal efficacy against MATIN: Table K; for herbicidal activity MATIN: scored visually after 3 weeks vs untreated controls
Outline: (§2)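 Weed seeds were laid out in sandy loam and covered with soil, then the soil surface was treated with an aqueous suspension or emulsion of the formulated compound containing 0.2% wetting agent. Pots stayed in the greenhouse for 3 weeks before damage was rated visually against untreated plants.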

[4] = test system: Stellaria media; test: Pre-emergence herbicidal action, STEME; assay type: in vivo; conditions: dosage 320 g/ha, scored visually after 3 weeks vs untreated controls
Outline: as §2

[5] = test system: Avena fatua; test: Pre-emergence herbicidal action, AVEFA; assay type: in vivo; conditions: for herbicidal activity AVEFA: scored visually after 3 weeks vs untreated controls
Outline: as §2

[6] = test system: Viola tricolor; test: Pre-emergence herbicidal action, VIOTR; assay type: in vivo; conditions: for herbicidal activity VIOTR: scored visually after 3 weeks vs untreated controls
Outline: as §2

[7] = test system: Alopecurus myosuroides; test: Pre-emergence herbicidal action, ALOMY; assay type: in vivo; conditions: for herbicidal activity ALOMY: scored visually after 3 weeks vs untreated controls
Outline: as §2

[8] = test system: Setaria viridis; test: Pre-emergence herbicidal action, SETVI; assay type: in vivo; conditions: for herbicidal activity SETVI: scored visually after 3 weeks vs untreated controls
Outline: as §2

[9] = test system: Abutilon theophrasti; test: Post-emergence herbicidal action, ABUTH; assay type: in vivo; conditions: 80 g/ha, Table D
Outline: as §1

[10] = test system: Amaranthus retroflexus; test: Pre-emergence herbicidal action, AMARE; assay type: in vivo; conditions: dosage 320 g/ha, scored visually after 3 weeks vs untreated controls
Outline: as §2

[11] = test system: Stellaria media; test: Post-emergence herbicidal action, STEME; assay type: in vivo; conditions: for Herbicidal activity STEME: 80 g/ha, Table D
Outline: as §1

[12] = test system: Setaria viridis; test: Post-emergence herbicidal action, SETVI; assay type: in vivo; conditions: for herbicidal activity SETVI: 80 g/ha, Table C
Outline: as §1

[13] = test system: Abutilon theophrasti; test: Pre-emergence herbicidal action, ABUTH; assay type: in vivo; conditions: for Herbicidal efficacy against ABUTH: Table K; for herbicidal activity ABUTH: scored visually after 3 weeks vs untreated controls
Outline: as §2

[14] = test system: Alopecurus myosuroides; test: Post-emergence herbicidal action, ALOMY; assay type: in vivo; conditions: for herbicidal activity ALOMY: 80 g/ha, Table C
Outline: as §1

[15] = test system: Polygonum convolvulus; test: Pre-emergence herbicidal action, POLCO; assay type: in vivo
Outline: as §2

[16] = test system: Cyperus serotinus; test: Post-emergence herbicidal action, CYPES; assay type: in vivo; conditions: 5 g/ha
Procedure: Seeds of monocotyledonous and dicotyledonous weed and crop plants are laid out in sandy loam soil in wood-fiber pots, covered with soil and cultivated in a greenhouse under good growth conditions. 2 to 3 weeks after sowing, the test plants are treated at the one-leaf stage. The compounds of the invention, formulated in the form of wettable powders (WP) or as emulsion concentrates (EC), are then sprayed onto the green parts of the plants in the form of an aqueous suspension or emulsion at a water application rate equating to […], with addition of 0.2% wetting agent. After the test plants have been left to stand in the greenhouse under optimal growth conditions for about 3 weeks, the action of the preparations is assessed visually in comparison to untreated controls (herbicidal action in percent (%): 100% activity=the plants have died, 0% activity=like control plants). […] At the same time, inventive compounds leave Gramineae crops such as barley, wheat, rye, millet/sorghum, corn or rice virtually undamaged when applied post-emergence, even at high active compound dosages. In addition, some substances are also harmless to dicotyledonous crops such as soya, cotton, oilseed rape, sugar beet or potatoes. […]

[17] = test system: Avena fatua; test: Post-emergence herbicidal action, AVEFA; assay type: in vivo; conditions: for herbicidal activity AVEFA: 80 g/ha, Table C
Outline: as §1

[18] = test system: Pharbitis purpureum; test: Post-emergence herbicidal action, PHBPU; assay type: in vivo; conditions: 80 g/ha, Table D
Outline: as §1

[19] = test system: Amaranthus retroflexus; test: Post-emergence herbicidal action, AMARE; assay type: in vivo; conditions: 80 g/ha, Table D
Outline: as §1

[20] = test system: Cyperus serotinus; test: Pre-emergence herbicidal action, CYPES; assay type: in vivo; conditions: for herbicidal activity CYPES: scored visually after 3 weeks vs untreated controls
Outline: as §2

[21] = test system: ECHCG; test: Post-emergence herbicidal action, ECHCG; assay type: in vivo; conditions: 80 g/ha, Table C
Outline: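 Weed and crop plants grown in sandy loam in the greenhouse, treated at the one-leaf stage 2–3 weeks after sowing. Damage scored visually after about 3 weeks vs untreated controls (0% = control, 100% = dead).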

[22] = test system: Matricaria inodora; test: Post-emergence herbicidal action, MATIN; assay type: in vivo; conditions: Table M
Procedure: (§3) Seeds of monocotyledonous and dicotyledonous weed and crop plants are laid out in sandy loam soil in wood-fiber pots, covered with soil and cultivated in a greenhouse under good growth conditions. 2 to 3 weeks after sowing, the test plants are treated at the one-leaf stage. The compounds of the invention, formulated in the form of wettable powders (WP) or as emulsion concentrates (EC), are then sprayed onto the green parts of the plants in the form of an aqueous suspension or emulsion at a water application rate equating to […], with addition of 0.2% wetting agent. After the test plants have been left to stand in the greenhouse under optimal growth conditions for about 3 weeks, the action of the preparations is assessed visually in comparison to untreated controls (herbicidal action in percent (%): 100% activity=the plants have died, 0% activity=like control plants). […] At the same time, inventive compounds leave Gramineae crops such as barley, wheat, rye, millet/sorghum, corn or rice virtually undamaged when applied post-emergence, even at high active compound dosages. In addition, some substances are also harmless to dicotyledonous crops such as soya, cotton, oilseed rape, sugar beet or potatoes. Some of the compounds according to the invention have high selectivity and are therefore suitable for controlling unwanted vegetation in agricultural crops by the post-emergence method. The data of Tables C and D below illustrate, in an exemplary manner, the […] herbicidal action of the compounds according to the invention, the herbicidal activity being stated in percent.
(§4) For comparison, the herbicidal activity of numerous compounds according to the invention was tested with the structurally closest compounds known from the documents WO 2011/035874, WO 2012/028579 and WO 2012/126932, by the pre- and post-emergence method.

[23] = test system: Veronica persica; test: Post-emergence herbicidal action, VERPE; assay type: in vivo; conditions: Table M
Procedure: as §3, §4

[24] = test system: LOLMU; test: Pre-emergence herbicidal action, LOLMU; assay type: in vivo; conditions: Table L

SMILES: Cc1c(C(=O)Nc2nnnn2C)ccc(C(F)F)c1[S+](C)[O-] (stereo not shown) [Example 1-2]
- Herbicidal efficacy against VIOTR ([1]; 5 g/ha): 100
- Herbicidal efficacy against VIOTR ([1]; 20 g/ha): 100
- herbicidal activity VIOTR [1]: 100%
- Herbicidal efficacy against ECHCG ([2]; 20 g/ha): 40
- Herbicidal efficacy against ECHCG ([2]; 80 g/ha): 100
- Herbicidal efficacy against ECHCG ([2]; 320 g/ha): 100
- Herbicidal efficacy against MATIN ([3]; dosage 20 g/ha): 70
- Herbicidal efficacy against MATIN ([3]; dosage 80 g/ha): 100
- Herbicidal efficacy against MATIN ([3]; dosage 320 g/ha): 100
- herbicidal activity MATIN ([3]; dosage 320 g/ha): 100%
- Herbicidal activity STEME [4]: 90%
- Herbicidal efficacy against AVEFA ([5]; 20 g/ha): 20
- Herbicidal efficacy against AVEFA ([5]; 80 g/ha): 70
- Herbicidal efficacy against AVEFA ([5]; 320 g/ha): 100
- herbicidal activity AVEFA ([5]; dosage 320 g/ha): 100%
- Herbicidal efficacy against VIOTR ([6]; dosage 20 g/ha, Table K): 80
- Herbicidal efficacy against VIOTR ([6]; dosage 80 g/ha, Table K): 100
- Herbicidal efficacy against VIOTR ([6]; dosage 320 g/ha, Table K): 100
- herbicidal activity VIOTR ([6]; dosage 320 g/ha): 100%
- Herbicidal efficacy against ALOMY ([7]; 20 g/ha): 70
- Herbicidal efficacy against ALOMY ([7]; 80 g/ha): 90
- Herbicidal efficacy against ALOMY ([7]; 320 g/ha): 100
- herbicidal activity ALOMY ([7]; dosage 320 g/ha): 100%
- Herbicidal efficacy against SETVI ([8]; 80 g/ha): 90
- Herbicidal efficacy against SETVI ([8]; 320 g/ha): 100
- herbicidal activity SETVI ([8]; dosage 320 g/ha): 100%
- herbicidal activity ABUTH [9]: 80%
- herbicidal activity AMARE [10]: 100%
- Herbicidal efficacy against STEME ([11]; 5 g/ha): 90
- Herbicidal efficacy against STEME ([11]; 20 g/ha): 90
- Herbicidal activity STEME [11]: 100%
- Herbicidal efficacy against SETVI ([12]; 5 g/ha): 90
- Herbicidal efficacy against SETVI ([12]; 20 g/ha): 90
- herbicidal activity SETVI [12]: 90%
- Herbicidal efficacy against ABUTH ([13]; dosage 80 g/ha): 100
- Herbicidal efficacy against ABUTH ([13]; dosage 320 g/ha): 100
- herbicidal activity ABUTH ([13]; dosage 320 g/ha): 100%
- Herbicidal efficacy against ALOMY ([14]; 5 g/ha): 60
- Herbicidal efficacy against ALOMY ([14]; 20 g/ha): 80
- herbicidal activity ALOMY [14]: 90%
- Herbicidal efficacy against POLCO ([15]; dosage 80 g/ha, Table K): 70
- Herbicidal efficacy against POLCO ([15]; dosage 320 g/ha, Table K): 80
- Herbicidal efficacy against CYPES [16]: 50
- Herbicidal efficacy against AVEFA ([17]; 5 g/ha): 70
- Herbicidal efficacy against AVEFA ([17]; 20 g/ha): 90
- herbicidal activity AVEFA [17]: 100%
- Herbicidal activity PHBPU [18]: 90%
- herbicidal activity AMARE [19]: 80%
- Herbicidal efficacy against CYPES ([20]; 20 g/ha): 60
- Herbicidal efficacy against CYPES ([20]; 80 g/ha): 80
- Herbicidal efficacy against CYPES ([20]; 320 g/ha): 90
- herbicidal activity CYPES ([20]; dosage 320 g/ha): 90%
- Herbicidal activity ECHCG [21]: 90%

SMILES: Cc1nnc(NC(=O)c2ccc(C(F)F)c(S(C)(=O)=O)c2C)o1 [Example 7-3]
- herbicidal activity VIOTR [1]: 100%
- Herbicidal efficacy against VIOTR ([1]; dosage 20 g/ha, Table M): 100
- Herbicidal efficacy against VIOTR ([1]; dosage 80 g/ha, Table M): 100
- Herbicidal efficacy against MATIN ([22]; dosage 20 g/ha): 90
- Herbicidal efficacy against MATIN ([22]; dosage 80 g/ha): 100
- herbicidal activity MATIN ([3]; dosage 320 g/ha): 100%
- Herbicidal activity STEME [4]: 100%
- Herbicidal efficacy against AVEFA ([5]; dosage 80 g/ha, Table L): 90
- Herbicidal efficacy against AVEFA ([5]; dosage 320 g/ha, Table L): 100
- herbicidal activity AVEFA ([5]; dosage 320 g/ha): 100%
- Herbicidal efficacy against VIOTR ([6]; dosage 80 g/ha, Table L): 100
- Herbicidal efficacy against VIOTR ([6]; dosage 320 g/ha, Table L): 100
- herbicidal activity VIOTR ([6]; dosage 320 g/ha): 100%
- Herbicidal efficacy against ALOMY ([7]; dosage 80 g/ha, Table L): 90
- Herbicidal efficacy against ALOMY ([7]; dosage 320 g/ha, Table L): 100
- herbicidal activity ALOMY ([7]; dosage 320 g/ha): 100%
- Herbicidal efficacy against SETVI ([8]; dosage 80 g/ha, Table L): 100
- Herbicidal efficacy against SETVI ([8]; dosage 320 g/ha, Table L): 100
- herbicidal activity SETVI ([8]; dosage 320 g/ha): 100%
- herbicidal activity ABUTH [9]: 100%
- herbicidal activity AMARE [10]: 100%
- Herbicidal activity STEME [11]: 100%
- Herbicidal efficacy against VERPE ([23]; dosage 20 g/ha): 100
- Herbicidal efficacy against VERPE ([23]; dosage 80 g/ha): 100
- herbicidal activity SETVI [12]: 100%
- Herbicidal efficacy against SETVI ([12]; dosage 20 g/ha, Table M): 90
- Herbicidal efficacy against SETVI ([12]; dosage 80 g/ha, Table M): 100
- herbicidal activity ABUTH ([13]; dosage 320 g/ha): 100%
- herbicidal activity ALOMY [14]: 100%
- Herbicidal efficacy against ALOMY ([14]; dosage 20 g/ha, Table M): 60
- Herbicidal efficacy against ALOMY ([14]; dosage 80 g/ha, Table M): 100
- Herbicidal efficacy against POLCO ([15]; dosage 80 g/ha, Table L): 40
- Herbicidal efficacy against POLCO ([15]; dosage 320 g/ha, Table L): 70
- Herbicidal efficacy against LOLMU ([24]; dosage 80 g/ha): 80
- Herbicidal efficacy against LOLMU ([24]; dosage 320 g/ha): 100
- herbicidal activity AVEFA [17]: 100%
- Herbicidal efficacy against AVEFA ([17]; dosage 20 g/ha, Table M): 90
- Herbicidal efficacy against AVEFA ([17]; dosage 80 g/ha, Table M): 100
- Herbicidal activity PHBPU [18]: 90%
- herbicidal activity AMARE [19]: 90%
- Herbicidal efficacy against CYPES ([20]; dosage 80 g/ha, Table L): 100
- Herbicidal efficacy against CYPES ([20]; dosage 320 g/ha, Table L): 100
- herbicidal activity CYPES ([20]; dosage 320 g/ha): 100%
- Herbicidal activity ECHCG [21]: 90%
